Consider 28 molecules from US20240335442A1 (Eurofarma Laboratórios S.A., priority 2021, published 2024).

Test [1] deals with human sodium channel Nav 1.7 (Homo sapiens (Human), UniProt Q15858). Description: Automated whole-cell voltage-clamp (ScreenPatch 384P), Nav 1.7 sodium current, Protocol 2. In kind it is cell-based. As to conditions: read-out: Nav1.7 IC50. Here is the method:
(§1) Biological assays were performed on Chinese hamster ovary (CHO) cells expressing the human sodium channels Nav 1.8 and Nav 1.7 stably.
(§2) The experimental voltage-clamp protocol using the whole cell configuration was established on the automated ScreenPatch® 384P platform (SP384PE, Nanion Technologies, Livingston, NJ) and recording of the results was performed with a Nanion 384-well Patch Clamp chip (NPC) (Nanion Technologies, Livingston, NJ).
(§3) Compounds of Formula (I), were diluted in eight concentrations in the extracellular solution composed of physiological saline, buffered with HEPES (mM): NaCl, 137; KCl, 4; CaCl2, 3.8; MgCl2, 1; HEPES, 10; Glucose, 10; pH 7.4. The […], 50; CsF, 90; MgCl2, 5; EGTA, 5; HEPES, 10; pH 7.2. The duration of exposure of each compound with the cells expressing Nav 1.7 or Nav 1.8 was at least five minutes and the assays were performed at room temperature.
(§4) The measurements of the sodium currents of Nav 1.8 and Nav 1.7 were obtained using the voltage protocols described below: • Protocol 1: A holding voltage of-90 mV was established followed by a voltage phase of 200 ms to-120 mV, followed by a voltage step of 10 mV for 1 second for Nav 1.8 or 0 mV for Nav 1.7, followed by a step of-100 mV for 20 ms, followed by a step of 20 ms for 10 mV for Nav 1.8 or 0 mV for Nav 1.7 (TP1A) before returning to the holding voltage of-90 mV. • Protocol 2: A holding voltage of-100 mV was established followed by an inactivation voltage step at −40 mV for 8 seconds, followed by a −100 mV step for 20 ms, followed by a 20 ms step for 10 mV for Nav 1.8 or 0 mV for Nav 1.7 (TP1A) before returning to the holding voltage of-100 mV.
(§5) Protocols were repeated at a frequency of 0.1 Hz (Protocol 1) or 0.05 Hz (Protocol 2) and current amplitude was quantified over the TP1A phase log. The variation in the peak amplitude of the current was evaluated according to the Formula described below, after exposure of the cells expressing the channels, at each concentration of the different compounds:
(§6) where ITP1A,basal, and ITP1A,molecule represent the entry peaks of sodium currents into TP1A prior to exposure to the compound and in the presence of the compound, respectively.
(§7) The decrease in peak current amplitude, after exposure of the cells to the compounds, was used to calculate the percent relative blocking of the channels relative to the positive control according to the Formula below: […]
(§8) where % V and % CP represent the averages of the values of current inhibition with a vehicle (DMSO) and positive controls, respectively. The sodium currents of the positive control were considered as 100%.
(§9) where [Test] represents the concentration of the evaluated molecule, IC50 is the concentration of the compound that generates half of the maximum inhibition, N is the Hill's coefficient and % Block′ is the percentage of the sodium channel current (Nav 1.8 and Nav 1.7) inhibited at each concentration of the evaluated molecule. Data were obtained by non linear least squares regression with XL fit for Excel (Microsoft, Redmond, WA).
(§10) Compounds were tested in at least one assay to obtain the IC50 value.

The target in test [2] is human sodium channel Nav 1.8 (Homo sapiens (Human), UniProt Q9Y5Y9). Description: Automated whole-cell voltage-clamp (ScreenPatch 384P), Nav 1.8 sodium current, Protocol 2. The class given is cell-based. The settings on record: read-out: Nav1.8 IC50. Here is the method:
as §1, §2, §3, §4, §5, §6, §7, §8, §9, §10

Structures are written as SMILES.

human sodium channel Nav 1.8, sequence (Q9Y5Y9 whole entry): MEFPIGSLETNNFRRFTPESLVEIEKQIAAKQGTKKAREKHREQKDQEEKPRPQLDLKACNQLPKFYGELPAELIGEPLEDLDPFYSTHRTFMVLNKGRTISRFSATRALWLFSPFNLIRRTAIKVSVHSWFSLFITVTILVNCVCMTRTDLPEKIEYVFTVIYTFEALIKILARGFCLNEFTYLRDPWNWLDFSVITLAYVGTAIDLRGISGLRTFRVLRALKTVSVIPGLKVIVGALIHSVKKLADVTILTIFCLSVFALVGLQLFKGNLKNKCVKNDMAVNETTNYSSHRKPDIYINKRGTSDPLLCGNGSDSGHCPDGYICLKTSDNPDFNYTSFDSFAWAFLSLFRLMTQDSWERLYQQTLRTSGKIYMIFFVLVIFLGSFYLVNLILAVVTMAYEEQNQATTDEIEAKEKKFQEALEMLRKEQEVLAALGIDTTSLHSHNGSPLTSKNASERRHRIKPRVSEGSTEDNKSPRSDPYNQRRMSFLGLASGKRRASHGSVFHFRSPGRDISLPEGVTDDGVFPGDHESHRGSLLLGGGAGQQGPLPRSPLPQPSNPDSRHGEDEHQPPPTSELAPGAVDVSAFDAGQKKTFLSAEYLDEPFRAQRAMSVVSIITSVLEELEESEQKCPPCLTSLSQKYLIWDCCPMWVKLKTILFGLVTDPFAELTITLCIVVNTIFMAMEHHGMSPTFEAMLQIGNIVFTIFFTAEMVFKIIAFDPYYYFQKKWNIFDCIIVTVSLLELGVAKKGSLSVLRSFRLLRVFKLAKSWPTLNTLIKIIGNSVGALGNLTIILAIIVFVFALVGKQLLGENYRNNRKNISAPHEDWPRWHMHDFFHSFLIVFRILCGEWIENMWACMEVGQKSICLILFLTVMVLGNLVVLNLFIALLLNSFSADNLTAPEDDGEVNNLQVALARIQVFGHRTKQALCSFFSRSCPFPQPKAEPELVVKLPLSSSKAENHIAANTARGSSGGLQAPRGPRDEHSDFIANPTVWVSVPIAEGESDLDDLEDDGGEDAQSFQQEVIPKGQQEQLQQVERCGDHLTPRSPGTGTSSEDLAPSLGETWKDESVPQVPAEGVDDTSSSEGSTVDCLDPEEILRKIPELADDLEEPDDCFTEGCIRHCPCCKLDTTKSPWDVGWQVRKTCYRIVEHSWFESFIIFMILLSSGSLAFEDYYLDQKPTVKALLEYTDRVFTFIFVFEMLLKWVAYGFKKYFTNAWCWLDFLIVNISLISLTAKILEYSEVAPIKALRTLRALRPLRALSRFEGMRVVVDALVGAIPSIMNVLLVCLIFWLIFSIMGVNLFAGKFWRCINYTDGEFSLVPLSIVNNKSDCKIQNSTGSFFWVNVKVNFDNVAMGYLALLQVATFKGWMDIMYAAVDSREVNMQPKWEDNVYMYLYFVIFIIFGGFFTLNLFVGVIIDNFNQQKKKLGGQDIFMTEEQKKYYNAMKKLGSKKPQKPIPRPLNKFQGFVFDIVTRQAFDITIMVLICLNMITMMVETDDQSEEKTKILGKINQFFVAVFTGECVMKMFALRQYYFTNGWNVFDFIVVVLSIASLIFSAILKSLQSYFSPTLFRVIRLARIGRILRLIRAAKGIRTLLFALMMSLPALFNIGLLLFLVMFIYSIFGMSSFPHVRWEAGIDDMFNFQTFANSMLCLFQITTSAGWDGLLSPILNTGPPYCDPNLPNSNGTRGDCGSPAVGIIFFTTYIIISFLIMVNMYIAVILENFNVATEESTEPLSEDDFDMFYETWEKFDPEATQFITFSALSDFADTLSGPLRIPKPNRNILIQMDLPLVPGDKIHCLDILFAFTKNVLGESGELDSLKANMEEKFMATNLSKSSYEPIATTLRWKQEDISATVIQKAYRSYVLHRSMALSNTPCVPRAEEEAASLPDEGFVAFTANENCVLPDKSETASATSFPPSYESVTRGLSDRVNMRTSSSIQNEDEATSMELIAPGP
human sodium channel Nav 1.7, sequence (Q15858 whole entry): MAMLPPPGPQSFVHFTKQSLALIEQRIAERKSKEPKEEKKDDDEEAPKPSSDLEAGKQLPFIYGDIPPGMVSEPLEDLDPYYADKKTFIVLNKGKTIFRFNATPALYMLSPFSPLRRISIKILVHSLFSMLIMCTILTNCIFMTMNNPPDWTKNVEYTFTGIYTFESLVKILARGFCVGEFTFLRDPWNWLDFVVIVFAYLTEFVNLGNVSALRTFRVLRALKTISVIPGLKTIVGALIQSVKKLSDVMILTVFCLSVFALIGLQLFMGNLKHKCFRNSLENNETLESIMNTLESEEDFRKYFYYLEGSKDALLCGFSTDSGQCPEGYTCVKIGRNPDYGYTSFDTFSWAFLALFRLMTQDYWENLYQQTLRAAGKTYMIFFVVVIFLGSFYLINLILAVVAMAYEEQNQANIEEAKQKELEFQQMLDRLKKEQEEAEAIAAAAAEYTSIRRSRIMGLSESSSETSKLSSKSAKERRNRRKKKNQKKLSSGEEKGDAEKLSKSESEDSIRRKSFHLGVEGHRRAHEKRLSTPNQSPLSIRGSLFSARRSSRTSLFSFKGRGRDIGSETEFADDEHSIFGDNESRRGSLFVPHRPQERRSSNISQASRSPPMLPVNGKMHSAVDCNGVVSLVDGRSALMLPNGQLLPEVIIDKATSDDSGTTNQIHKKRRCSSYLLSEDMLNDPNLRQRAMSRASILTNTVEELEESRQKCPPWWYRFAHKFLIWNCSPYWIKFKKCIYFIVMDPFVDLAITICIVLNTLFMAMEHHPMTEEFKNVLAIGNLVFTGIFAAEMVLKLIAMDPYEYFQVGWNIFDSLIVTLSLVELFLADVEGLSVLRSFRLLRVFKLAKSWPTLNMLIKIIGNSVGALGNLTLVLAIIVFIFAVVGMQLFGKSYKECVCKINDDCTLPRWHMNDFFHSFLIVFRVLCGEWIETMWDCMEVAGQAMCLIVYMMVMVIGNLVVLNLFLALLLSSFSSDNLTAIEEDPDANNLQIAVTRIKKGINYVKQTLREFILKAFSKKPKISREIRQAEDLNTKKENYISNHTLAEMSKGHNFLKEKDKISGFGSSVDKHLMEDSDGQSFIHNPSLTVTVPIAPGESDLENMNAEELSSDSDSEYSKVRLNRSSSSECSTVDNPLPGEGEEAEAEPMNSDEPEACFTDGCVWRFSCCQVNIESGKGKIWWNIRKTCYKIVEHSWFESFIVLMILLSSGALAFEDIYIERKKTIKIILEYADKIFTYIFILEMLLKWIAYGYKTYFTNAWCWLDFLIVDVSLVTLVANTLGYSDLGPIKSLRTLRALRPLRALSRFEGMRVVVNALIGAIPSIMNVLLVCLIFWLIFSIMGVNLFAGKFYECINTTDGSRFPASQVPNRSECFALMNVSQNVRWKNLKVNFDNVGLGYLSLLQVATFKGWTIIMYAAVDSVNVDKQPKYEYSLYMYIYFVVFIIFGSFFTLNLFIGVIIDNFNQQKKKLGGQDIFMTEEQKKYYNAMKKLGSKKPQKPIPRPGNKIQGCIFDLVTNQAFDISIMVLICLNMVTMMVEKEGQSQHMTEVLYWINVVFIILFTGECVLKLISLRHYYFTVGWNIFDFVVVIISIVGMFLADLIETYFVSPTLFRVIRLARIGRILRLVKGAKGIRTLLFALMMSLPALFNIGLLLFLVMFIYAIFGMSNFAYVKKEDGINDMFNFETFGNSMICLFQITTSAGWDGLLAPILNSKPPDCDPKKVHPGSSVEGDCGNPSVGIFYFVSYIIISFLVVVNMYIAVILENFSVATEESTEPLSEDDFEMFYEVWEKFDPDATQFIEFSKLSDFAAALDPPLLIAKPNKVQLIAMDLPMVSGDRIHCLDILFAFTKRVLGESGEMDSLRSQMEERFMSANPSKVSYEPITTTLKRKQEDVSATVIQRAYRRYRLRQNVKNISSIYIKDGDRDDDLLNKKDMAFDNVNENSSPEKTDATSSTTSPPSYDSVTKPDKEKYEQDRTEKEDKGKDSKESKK

As for `CCCOc1cccc(/C=N/NC(=O)c2cncc(-c3ccc(OC)cc3)n2)c1` [Compound 40, (E)-6-(4-methoxyphenyl)-N′-(3-propoxybenzylidene)pyrazine-2-carbohydrazide], the IC50 in test [1] was found to be 3.36 µM; in test [2], 0.277 µM.

Take `COc1ccc(-c2cncc(C(=O)N/N=C/c3cccc(OC(C)C)c3)n2)cc1` [Compound 41, (E)-N′-(3-isopropoxybenzylidene)-6-(4-methoxyphenyl)pyrazine-2-carbohydrazide]: the IC50 worked out at 3.29 µM in test [1] and 0.0945 µM in test [2].

Consider `COc1ccc(-c2cncc(C(=O)N/N=C/c3ccccc3OC)n2)cc1` [Compound 42, (E)-N′-(2-methoxybenzylidene)-6-(4-methoxyphenyl)pyrazine-2-carbohydrazide], for which the IC50 in test [1] was determined as 3.9 µM; in test [2], 0.621 µM.

Turning to `COc1ccc(-c2cncc(C(=O)N/N=C/c3ccccc3F)n2)cc1` [Compound 46, (E)-N′-(2-fluorobenzylidene)-6-(4-methoxyphenyl)pyrazine-2-carbohydrazide], the IC50 is 1.99 µM in test [1] and 0.178 µM in test [2].

Take `COc1ccc(-c2cncc(C(=O)N/N=C/c3ccccc3Cl)n2)cc1` [Compound 47, (E)-N′-(2-chlorobenzylidene)-6-(4-methoxyphenyl)pyrazine-2-carbohydrazide]: the IC50 in test [1] came out at 1.42 µM; in test [2], 0.082 µM.

With `COc1ccc(-c2cncc(C(=O)N/N=C/c3ccccc3Br)n2)cc1` [Compound 48, (E)-N′-(2-bromobenzylidene)-6-(4-methoxyphenyl)pyrazine-2-carbohydrazide], the IC50 in test [1] came to 0.798 µM; in test [2], 0.233 µM.

In the case of `COc1ccc(-c2cncc(C(=O)N/N=C/c3ccccc3C(F)(F)F)n2)cc1` [Compound 49, (E)-6-(4-methoxyphenyl)-N′-(2-(trifluoromethyl)benzylidene)pyrazine-2-carbohydrazide], the IC50 in test [1] was 1.31 µM; in test [2], 0.158 µM.

For the molecule `COc1ccc(-c2cncc(C(=O)N/N=C/c3ccccc3C)n2)cc1` [Compound 51, (E)-6-(4-methoxyphenyl)-N′-(2-methylbenzylidene)pyrazine-2-carbohydrazide], the IC50 in test [1] is 1.38 µM; in test [2] it was 0.131 µM.

For the molecule `COc1ccc(-c2cncc(C(=O)N/N=C/c3ccccc3C(C)(C)C)n2)cc1` [Compound 52, (E)-N′-(2-(tert-butyl)benzylidene)-6-(4-methoxyphenyl)pyrazine-2-carbohydrazide], the IC50 in test [1] is 3.59 µM; in test [2], > 1 µM.

Regarding `COc1ccc(-c2cncc(C(=O)N/N=C/c3cccc(F)c3)n2)cc1` [Compound 53, (E)-N′-(3-fluorobnezylidene)-6-(4-methoxyphenyl)pyrazine-2-carbohydrazide], the values for the IC50 in test [1] and in test [2] were > 10 µM and 0.441 µM, respectively.

With `COc1ccc(-c2cncc(C(=O)N/N=C/c3cccc(Cl)c3)n2)cc1` [Compound 54, (E)-N′-(3-chlorobenzylidene)-6-(4-methoxyphenyl)pyrazine-2-carbohydrazide], the IC50 in test [1] came to 2.91 µM; in test [2], 0.311 µM.

Turning to `COc1ccc(-c2cncc(C(=O)N/N=C/c3cccc(Br)c3)n2)cc1` [Compound 55, (E)-N′-(3-bromobenzylidene)-6-(4-methoxyphenyl)pyrazine-2-carbohydraizde], the IC50 in test [1] came to 2.19 µM; in test [2], 0.476 µM.

For the molecule `COc1ccc(-c2cncc(C(=O)N/N=C/c3cccc(C(F)(F)F)c3)n2)cc1` [Compound 56, (E)-6-(4-methoxyphenyl)-N′-(3-(trifluoromethyl)benzylidene)pyrazine-2-carbohydrazide], the values for the IC50 in test [1] and in test [2] were 5.48 µM and 0.462 µM, respectively.

With `COc1ccc(-c2cncc(C(=O)N/N=C/c3cccc(C)c3)n2)cc1` [Compound 58, (E)-6-(4-methoxyphenyl)-N′-(3-methylbenzylidene)pyrazine-2-carbohydrazide], the IC50 in test [1] came out at 1.05 µM; in test [2] it was 0.097 µM.

Consider `COc1ccc(-c2cncc(C(=O)N/N=C/c3cccc(C(C)(C)C)c3)n2)cc1` [Compound 59, (E)-N′-(3-(tert-butyl)benzylidene)-6-(4-methoxyphenyl)pyrazine-2-carbohydrazide], for which the IC50 was found to be 1.85 µM in test [1] and 0.492 µM in test [2].

With `COc1ccc(-c2cncc(C(=O)N/N=C/c3ccc(F)cc3)n2)cc1` [Compound 60, (E)-N′-(4-fluorobenzylidene)-6-(4-methoxyphenyl)pyrazine-2-carbohydrazide], the IC50 was determined as 5.19 µM in test [1] and 0.34 µM in test [2].

On to `COc1ccc(-c2cncc(C(=O)N/N=C/c3ccc(Cl)cc3)n2)cc1` [Compound 61, (E)-N′-(4-chlorobenzylidene)-6-(4-methoxyphenyl)pyrazine-2-carbohydrazide], for which the IC50 was found to be 7.02 µM in test [1] and 0.614 µM in test [2].

On to `COc1ccc(-c2cncc(C(=O)N/N=C/c3ccc(Br)cc3)n2)cc1` [Compound 62, (E)-N′-(4-bromobenzylidene)-6-(4-methoxyphenyl)pyrazine-2-carbohydrazide], for which the results for the IC50 in test [1] and in test [2] were > 10 µM and 0.761 µM, respectively.

For the molecule `COc1ccc(-c2cncc(C(=O)N/N=C/c3ccc(C(F)(F)F)cc3)n2)cc1` [Compound 63, (E)-6-(4-methoxyphenyl)-N′-(4-(trifluoromethyl)benzylidene)pyrazine-2-carbohydrazide], the IC50 was > 10 µM in test [1] and > 1 µM in test [2].

Turning to `COc1ccc(-c2cncc(C(=O)N/N=C/c3ccc(N(C)C)cc3)n2)cc1` [Compound 64], the IC50 in test [1] worked out at 8.16 µM; in test [2], 1 µM.

In the case of `COc1ccc(-c2cncc(C(=O)N/N=C/c3ccc(C)cc3)n2)cc1` [Compound 65, (E)-6-(4-methoxyphenyl)-N′-(4-methylbenzylidene)pyrazine-2-carbohydrazide], the IC50 is 6.6 µM in test [1] and 0.8 µM in test [2].

As to `COc1ccc(-c2cncc(C(=O)N/N=C/c3ccc(C(C)(C)C)cc3)n2)cc1` [Compound 66, (E)-N′-(4-(tert-butyl)benzylidene)-6-(4-methoxyphenyl)pyrazine-2-carbohydrazide], the IC50 in test [1] is > 10 µM; in test [2] it was > 1 µM.

Regarding `CCOc1cc(/C=N/NC(=O)c2cncc(-c3ccc(OC)cc3)n2)cc(OCC)c1` [Compound 67, (E)-N′-(3,5-diethoxybenzylidene)-6-(4-methoxyphenyl)pyrazine-2-carbohydrazide], the IC50 is 1.93 µM in test [1] and 0.747 µM in test [2].

For `COc1ccc(-c2cncc(C(=O)N/N=C/c3cc(C(F)(F)F)cc(C(F)(F)F)c3)n2)cc1` [Compound 73, (E)-N′-(3,5-bis(trifluoromethyl)benzylidene)-6-(4-methoxyphenyl)pyrazine-2-carbohydrazide], the IC50 in test [1] was > 10 µM; in test [2] it was 0.777 µM.

As for `COc1ccc(-c2cncc(C(=O)N/N=C/c3cc(C(C)(C)C)cc(C(C)(C)C)c3)n2)cc1` [Compound 76, (E)-N′-(3,5-di-tert-butylbenzylidene)-6-(4-methoxyphenyl)pyrazine-2-carbohydrazide], the values for the IC50 in test [1] and in test [2] were > 10 µM and > 1 µM, respectively.

As for `COc1ccc(-c2cncc(C(=O)N/N=C/c3cccnc3)n2)cc1` [Compound 77, (E)-6-(4-methoxyphenyl)-N′-(pyridin-3-ylmethylene)pyrazine-2-carbohydrazide], the IC50 is > 10 µM in test [1] and > 1 µM in test [2].

With `COc1ccc(-c2cncc(C(=O)N/N=C/c3ccc(OC)cc3OC)n2)cc1` [Compound 78, (E)-N′-(2,4-dimethoxybenzylidene)-6-(4-methoxyphenyl)pyrazine-2-carbohyrazide], the results for the IC50 in test [1] and in test [2] were 7.15 µM and 0.841 µM, respectively.

For `COc1ccc(-c2cncc(C(=O)N/N=C/c3c(OC)cccc3OC)n2)cc1` [Compound 79, (E)-N′-(2,6-dimethoxybenzylidene)-6-(4-methoxyphenyl)pyrazine-2-carbohydrazide], the IC50 in test [1] was > 10 µM; in test [2], > 1 µM.

The IC50 is the concentration needed to halve the response being measured.
